Measurements taken from ChEMBL document CHEMBL2073861, “Molecular identification of a novel carnitine transporter specific to human testis. Insights into the mechanism of carnitine recognition” (J Biol Chem, 2002).
Values belong to the molecule of their own block, whether it stands above or below them.

Experiments:
[1] = molecular target: Solute carrier family 22 member 16 (Homo sapiens) (UniProt Q86VW1); assay: TP_TRANSPORTER: inhibition of carnitine uptake by Carnitine-related compound-12A at 20uM in Xenopus laevis oocytes; design: scale not given: the % may be the effect or the level left; details: Oocyte
[2] = molecular target: T1, Organic cation/carnitine transporter 2 (Homo sapiens, UniProt O76082); assay: TP_TRANSPORTER: inhibition of carnitine transport by Carnitine-related compound-3A at 20uM in Xenopus laevis oocytes; assay type: functional, cell-based, Oocyte; design: scale not given: the % may be the effect or the level left; details: probe carnitine, read-out: Activity
T1 sequence (O76082 whole entry): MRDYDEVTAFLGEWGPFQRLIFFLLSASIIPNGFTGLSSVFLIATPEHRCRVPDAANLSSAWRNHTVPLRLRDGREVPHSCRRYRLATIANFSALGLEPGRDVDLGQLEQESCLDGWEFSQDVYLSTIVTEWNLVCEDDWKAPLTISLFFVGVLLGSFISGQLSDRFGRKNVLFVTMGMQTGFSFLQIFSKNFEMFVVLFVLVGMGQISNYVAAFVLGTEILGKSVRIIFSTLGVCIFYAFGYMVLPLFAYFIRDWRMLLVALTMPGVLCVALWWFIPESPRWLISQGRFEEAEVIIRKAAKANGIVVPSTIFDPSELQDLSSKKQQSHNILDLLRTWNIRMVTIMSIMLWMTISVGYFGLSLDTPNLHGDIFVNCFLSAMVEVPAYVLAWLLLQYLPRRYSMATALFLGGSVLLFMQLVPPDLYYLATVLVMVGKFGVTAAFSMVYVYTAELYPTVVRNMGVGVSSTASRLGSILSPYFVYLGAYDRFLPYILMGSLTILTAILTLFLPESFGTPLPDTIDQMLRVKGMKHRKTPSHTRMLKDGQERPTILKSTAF

[3] = molecular target: Solute carrier family 22 member 16 (Homo sapiens) (UniProt Q86VW1); assay: TP_TRANSPORTER: inhibition of carnitine uptake by Carnitine-related compound-3A at 20uM in Xenopus laevis oocytes; design: scale not given: the % may be the effect or the level left; details: Oocyte
[4] = molecular target: Solute carrier family 22 member 16 (Homo sapiens) (UniProt Q86VW1); assay: TP_TRANSPORTER: inhibition of carnitine uptake by Carnitine-related compound-11A at 20uM in Xenopus laevis oocytes; design: scale not given: the % may be the effect or the level left; details: Oocyte
[5] = molecular target: Solute carrier family 22 member 16 (Homo sapiens) (UniProt Q86VW1); assay: TP_TRANSPORTER: inhibition of carnitine uptake by Carnitine-related compound-13 at 20uM in Xenopus laevis oocytes; design: scale not given: the % may be the effect or the level left; details: Oocyte
[6] = molecular target: T1, Organic cation/carnitine transporter 2; assay: TP_TRANSPORTER: inhibition of carnitine uptake by Carnitine-related compound-13 at 20uM in Xenopus laevis oocytes; assay type: functional, cell-based, Oocyte; design: scale not given: the % may be the effect or the level left; details: probe carnitine, read-out: Activity
[7] = molecular target: T2, Solute carrier family 22 member 16 (Homo sapiens, UniProt Q86VW1); assay: TP_TRANSPORTER: inhibition of carnitine transport by Octanoyl-carnitine at 5uM in Xenopus laevis oocytes; assay type: functional, cell-based; design: scale not given: the % may be the effect or the level left; details: oocyte
T2 sequence (Q86VW1 whole entry): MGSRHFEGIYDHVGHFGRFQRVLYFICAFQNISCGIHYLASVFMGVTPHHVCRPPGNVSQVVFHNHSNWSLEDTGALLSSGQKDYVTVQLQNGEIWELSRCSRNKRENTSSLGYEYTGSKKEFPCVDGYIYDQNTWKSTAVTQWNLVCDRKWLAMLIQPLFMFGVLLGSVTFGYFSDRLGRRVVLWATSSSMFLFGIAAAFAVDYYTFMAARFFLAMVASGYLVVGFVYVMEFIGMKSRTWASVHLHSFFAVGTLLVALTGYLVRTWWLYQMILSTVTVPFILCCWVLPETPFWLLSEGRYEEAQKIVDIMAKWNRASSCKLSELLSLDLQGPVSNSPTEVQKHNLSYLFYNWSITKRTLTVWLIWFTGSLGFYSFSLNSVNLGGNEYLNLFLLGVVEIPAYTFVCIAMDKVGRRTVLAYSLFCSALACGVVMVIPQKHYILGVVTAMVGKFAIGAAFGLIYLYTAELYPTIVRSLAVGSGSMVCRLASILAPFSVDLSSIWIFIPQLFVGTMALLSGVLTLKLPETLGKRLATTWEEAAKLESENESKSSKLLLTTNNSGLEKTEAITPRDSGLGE

[8] = molecular target: Solute carrier family 22 member 16 (Homo sapiens) (UniProt Q86VW1); assay: TP_TRANSPORTER: inhibition of carnitine uptake by Carnitine-related compound-2A at 20uM in Xenopus laevis oocytes; design: scale not given: the % may be the effect or the level left; details: Oocyte
[9] = molecular target: T1, Organic cation/carnitine transporter 2; assay: TP_TRANSPORTER: inhibition of carnitine uptake by Carnitine-related compound-2A at 20uM in Xenopus laevis oocytes; assay type: functional, cell-based, Oocyte; design: scale not given: the % may be the effect or the level left; details: probe carnitine, read-out: Activity
[10] = molecular target: Solute carrier family 22 member 16 (Homo sapiens) (UniProt Q86VW1); assay: TP_TRANSPORTER: inhibition of carnitine uptake by Carnitine-related compound-18 at 20uM in Xenopus laevis oocytes; design: scale not given: the % may be the effect or the level left; details: Oocyte
[11] = molecular target: Solute carrier family 22 member 16 (Homo sapiens) (UniProt Q86VW1); assay: TP_TRANSPORTER: inhibition of carnitine uptake by Carnitine-related compound-4A at 20uM in Xenopus laevis oocytes; design: scale not given: the % may be the effect or the level left; details: Oocyte
[12] = molecular target: T1, Organic cation/carnitine transporter 2; assay: TP_TRANSPORTER: inhibition of carnitine uptake by Carnitine-related compound-4A at 20uM in Xenopus laevis oocytes; assay type: functional, cell-based; design: scale not given: the % may be the effect or the level left; details: oocyte
[13] = molecular target: Solute carrier family 22 member 16 (Homo sapiens) (UniProt Q86VW1); assay: TP_TRANSPORTER: inhibition of carnitine uptake by Carnitine-related compound-17 at 20uM in Xenopus laevis oocytes; design: scale not given: the % may be the effect or the level left; details: Oocyte
[14] = molecular target: T2, Solute carrier family 22 member 16; assay: TP_TRANSPORTER: inhibition of carnitine transport by Acetyl-L-carnitine at 5uM in Xenopus laevis oocytes; assay type: functional, cell-based, Oocyte; design: scale not given: the % may be the effect or the level left; details: probe carnitine, read-out: Activity
[15] = molecular target: T1, Organic cation/carnitine transporter 2; assay: TP_TRANSPORTER: inhibition of carnitine uptake by Carnitine-related compound-14 at 20uM in Xenopus laevis oocytes; assay type: functional, cell-based, Oocyte; design: scale not given: the % may be the effect or the level left; details: probe carnitine, read-out: Activity
[16] = molecular target: T1, Organic cation/carnitine transporter 2; assay: TP_TRANSPORTER: inhibition of carnitine transport by Carnitine-related compound-7A at 20uM in Xenopus laevis oocytes; assay type: functional, cell-based, Oocyte; design: scale not given: the % may be the effect or the level left; details: probe carnitine, read-out: Activity
[17] = molecular target: Solute carrier family 22 member 16 (Homo sapiens) (UniProt Q86VW1); assay: TP_TRANSPORTER: inhibition of carnitine uptake by Carnitine-related compound-7A at 20uM in Xenopus laevis oocytes; design: scale not given: the % may be the effect or the level left; details: Oocyte
[18] = molecular target: Solute carrier family 22 member 16 (Homo sapiens) (UniProt Q86VW1); assay: TP_TRANSPORTER: inhibition of carnitine uptake by Carnitine-related compound-9A at 20uM in Xenopus laevis oocytes; design: scale not given: the % may be the effect or the level left; details: Oocyte
[19] = molecular target: T1, Organic cation/carnitine transporter 2; assay: TP_TRANSPORTER: inhibition of carnitine transport by Carnitine-related compound-9A at 20uM in Xenopus laevis oocytes; assay type: functional, cell-based, Oocyte; design: scale not given: the % may be the effect or the level left; details: probe carnitine, read-out: Activity
[20] = molecular target: Solute carrier family 22 member 16 (Homo sapiens) (UniProt Q86VW1); assay: TP_TRANSPORTER: inhibition of carnitine uptake by Carnitine-related compound-6A at 20uM in Xenopus laevis oocytes; design: scale not given: the % may be the effect or the level left; details: Oocyte
[21] = molecular target: T2, Solute carrier family 22 member 16; assay: TP_TRANSPORTER: inhibition of carnitine in Xenopus laevis oocytes; assay type: functional, cell-based, Oocyte
[22] = molecular target: Solute carrier family 22 member 16 (Homo sapiens) (UniProt Q86VW1); assay: TP_TRANSPORTER: inhibition of carnitine uptake by Carnitine-related compound-8A at 20uM in Xenopus laevis oocytes; design: scale not given: the % may be the effect or the level left; details: Oocyte
[23] = molecular target: T1, Organic cation/carnitine transporter 2; assay: TP_TRANSPORTER: inhibition of carnitine transport by Carnitine-related compound-8A at 20uM in Xenopus laevis oocytes; assay type: functional, cell-based, Oocyte; design: scale not given: the % may be the effect or the level left; details: probe carnitine, read-out: Activity
[24] = molecular target: T1, Organic cation/carnitine transporter 2; assay: TP_TRANSPORTER: inhibition of carnitine uptake by Carnitine-related compound-10A at 20uM in Xenopus laevis oocytes; assay type: functional, cell-based, Oocyte; design: scale not given: the % may be the effect or the level left; details: probe carnitine, read-out: Activity
[25] = molecular target: Solute carrier family 22 member 16 (Homo sapiens) (UniProt Q86VW1); assay: TP_TRANSPORTER: inhibition of carnitine uptake by Carnitine-related compound-10A at 20uM in Xenopus laevis oocytes; design: scale not given: the % may be the effect or the level left; details: Oocyte
[26] = molecular target: T1, Organic cation/carnitine transporter 2; assay: TP_TRANSPORTER: inhibition of carnitine uptake by Carnitine-related compound-5A at 20uM in Xenopus laevis oocytes; assay type: functional, cell-based, Oocyte; design: scale not given: the % may be the effect or the level left; details: probe carnitine, read-out: Activity
[27] = molecular target: Solute carrier family 22 member 16 (Homo sapiens) (UniProt Q86VW1); assay: TP_TRANSPORTER: inhibition of carnitine uptake by Carnitine-related compound-5A at 20uM in Xenopus laevis oocytes; design: scale not given: the % may be the effect or the level left; details: Oocyte
[28] = substrate: C[N+](C)(C)CC(O)CC(=O)[O-]; assay: TP_TRANSPORTER: uptake in Xenopus laevis oocytes; assay type: functional, cell-based, Oocyte

Activity [1]: 50%
Molecule: CC[N+](CC)(CC)CCCCCCC(=O)O

activity at 20 µM [2]: 20% | Activity [3]: 20%
Molecule: CC[N+](C)(CC)CCCCC(=O)O

Activity [4]: 50%
Molecule: CC[N+](C)(CC)CCCCCCC(=O)O

Activity [5]: 20% | activity at 20 µM [6]: 40%
Molecule: C[N+](C)(C)CC(O)CC(=O)[O-] (stereo not drawn) [CARNITINE]

Activity [7]: 70%
Molecule: CCCCCCCC(=O)OC(CC(=O)O)C[N+](C)(C)C.[Cl-] (stereo not drawn) [Octanoyl-carnitine]

Activity [8]: 20% | activity at 20 µM [9]: 40%
Molecule: C[N+](C)(C)CCCCC(=O)O

Activity [10]: 20%
Molecule: CC[N+](CC)(CC)CC(O)CCC(=O)[O-] (stereo not drawn)

Activity [11]: 20% | Activity [12]: 50%
Molecule: CC[N+](CC)(CC)CCCCC(=O)O.[Cl-]

Activity [13]: 20%
Molecule: CC[N+](C)(CC)CC(O)CCC(=O)[O-] (stereo not drawn)

Molecule: CC(=O)O[C@H](CC(=O)[O-])C[N+](C)(C)C [ACETYLCARNITINE]
activity at 5 µM [14]: 70%

activity at 20 µM [15]: 70%
Molecule: CC[N+](CC)(CC)CC(O)CC(=O)[O-] (stereo not drawn)

activity at 20 µM [16]: 35% | Activity [17]: 20%
Molecule: C[N+](C)(C)CCCCCC(=O)O

Activity [18]: 20% | activity at 20 µM [19]: 30%
Molecule: CC[N+](CC)(CC)CCCCCC(=O)O

Activity [20]: 70%
Molecule: CCC[N+](CCC)(CCC)CCCCC(=O)O

Ki [21]: 30 µM
Molecule: C[N+](C)(C)C[C@@H](O)CC(=O)[O-] [D-CARNITINE]

Activity [22]: 30% | activity at 20 µM [23]: 20%
Molecule: CC[N+](C)(CC)CCCCCC(=O)O

activity at 20 µM [24]: 50% | Activity [25]: 40%
Molecule: C[N+](C)(C)CCCCCCC(=O)O

activity at 20 µM [26]: 40% | Activity [27]: 20%
Molecule: CC[N+](CCCCC(=O)O)(C(C)C)C(C)C

B1: Solute carrier family 22 member 16 (Homo sapiens) (protein)
chain: MGSRHFEGIYDHVGHFGRFQRVLYFICAFQNISCGIHYLASVFMGVTPHHVCRPPGNVSQVVFHNHSNWSLEDTGALLSSGQKDYVTVQLQNGEIWELSRCSRNKRENTSSLGYEYTGSKKEFPCVDGYIYDQNTWKSTAVTQWNLVCDRKWLAMLIQPLFMFGVLLGSVTFGYFSDRLGRRVVLWATSSSMFLFGIAAAFAVDYYTFMAARFFLAMVASGYLVVGFVYVMEFIGMKSRTWASVHLHSFFAVGTLLVALTGYLVRTWWLYQMILSTVTVPFILCCWVLPETPFWLLSEGRYEEAQKIVDIMAKWNRASSCKLSELLSLDLQGPVSNSPTEVQKHNLSYLFYNWSITKRTLTVWLIWFTGSLGFYSFSLNSVNLGGNEYLNLFLLGVVEIPAYTFVCIAMDKVGRRTVLAYSLFCSALACGVVMVIPQKHYILGVVTAMVGKFAIGAAFGLIYLYTAELYPTIVRSLAVGSGSMVCRLASILAPFSVDLSSIWIFIPQLFVGTMALLSGVLTLKLPETLGKRLATTWEEAAKLESENESKSSKLLLTTNNSGLEKTEAITPRDSGLGE
Km [28]: 20 µM
